Consider 2 compounds from PMC9009886, “In vitro and in vivo Anti-leishmanial Potential of [Ag (PTA) 4 ]BF 4 and [Ag(HBPz 3 )(PPh 3 )] Silver Complexes” (Revista da Sociedade Brasileira de Medicina Tropical, 2022).

Structures are written as SMILES. Where two headings read alike, the source gives them in different places.

Broadly, the IC50 is the concentration needed to halve the response being measured.

For series [1], the system named is amastigote forms of L. (V.) guyanensis in human monocytes. The series can be described thus: Assay with amastigote forms of L. (V.) guyanensis in human monocytes. The format is cell-based, Leishmania (Viannia) guyanensis. The procedure:
(§1) The assay against amastigote forms was performed using murine peritoneal macrophages and human monocytes, obtained as described for the cytotoxicity assay. The cells were incubated for 48 h in a 24 well-plate containing glass coverslips with the RPMI medium, and cell volume adjusted to 10[5] macrophages/monocyte/mL.
(§2) The adhered cells were infected with promastigote forms of Leishmania spp. and left for 2 h. The test substances were then added at the concentrations used in previous trials and exposed for 24, 48, and 72 h. Coverslips were stained using a Panoptic kit (Laborclin® - Laborclin Products for Laboratories Ltd, Pinhais, Brazil) and quantified using optical microscopy at 400 × magnification. A total of 100 cells were quantified to evaluate the number of infected and uninfected macrophages and internalized amastigotes. Three independent assays were performed on peritoneal macrophages and human monocytes.
(§3) Statistical analysis was performed using linear regression to calculate IC50 using GraphPad Prism® (GraphPad Software Inc. version 6.0, for Windows). Results are expressed as mean ± standard deviation.

Series [2] deals with lesions caused by L. (V.) guyanensis. The series can be described thus: Topical treatment of lesions in hamsters infected with L. (V.) guyanensis. The format is in vivo, Mesocricetus auratus. As for the experimental part: (§4) To prepare the Carbopol®-based gel, Nipagin® was mixed with distilled water until its total solubilization, and then Carpobol® was added. Then, the metal complex was added and incorporated separately in each gel, and triethonolamine was added gradually until a thick gel was obtained. Finally, the metal complexes were mixed at a concentration of 3 mg/L, a value defined for comparative purposes with the positive control of the study (Glucantime®) administered at the same concentration via the intramuscular (IM) route.
(§5) For the assays, 72 adult male aged 60-days golden hamsters (Mesocricetus auratus) that were free of pathogens and had been previously obtained from the Central Vivarium at the INPA (CEUA 060/2018) were used [Appendix C]. The animals were housed in stainless steel cages in air-conditioned rooms, with controlled light, temperature (22-25 °C), humidity (50-60%), and food and water ad libitum.
Animals were separated into six groups. Five groups were infected with 100 µL of a solution containing 10[6] promastigote/mL of Leishmania spp. The first experiment involved 36 animals infected with L. (L.) amazonensis, and the second experiment involved 36 animals infected with L. (V.) guyanensis. Animals were divided into the following groups: […]
To evaluate the course of infection, the total volume of the lesion (length, width, and height) was measured using a caliper (Zaas® Precision). […]
For parasitological studies, a sample of the tissue from the lesion region lesion in each animal was sectioned, and the fragment was printed on a glass slide and stained using the Panoptic kit (Laborclin®). The slides were evaluated using optical microscopy, 30 fields were counted, and the analysis and quantification of infected and uninfected cells and the quantity of internalized amastigote forms were performed. […] After this period, an aliquot containing the fragments was evaluated using optical microscopy for parasitological analysis. […]

Series [3] has as its system amastigote forms of L. (L.) amazonensis in human monocytes. The series is described as follows: Assay with amastigote forms of L. (L.) amazonensis in human monocytes. The format is cell-based, Leishmania (Leishmania) amazonensis. As for the experimental part:
as §1, §2, §3

Series [4] has as its system human monocytes. The series is described as follows: Cytotoxicity (MTT) in human monocytes. The format is cell-based. The procedure: Human monocytes were obtained after approval from the Research Ethics Committee (CEP-UFAM: 29406319.2.0000.5020) (Appendix B). Blood samples were collected from all patients. Phosphate-buffered saline (PBS) 1 x was added, and the blood/PBS was added gently on Ficoll-Histopaque (Sigma-Aldrich®) [density of 1077] and centrifuged for 30 min/200 g[7]. Peripheral blood mononuclear cells were collected, added PBS 1 x, and centrifuged for 3 min at 400 × g. The cell concentration was adjusted to 10[4] monocytes/mL[7].
(§6) The assay was performed in 96-well plates (KASVI®). The RPMI medium was added to the cells at a concentration of 10[4] cells/mL/well. The metal complexes were added at concentrations of […] in triplicate as […], and Glucantime® was used at the same concentration as the metal complexes. The negative controls used DMSO at 4 concentrations (2%, 1%, 0.50%, and 0.25%), and the RMPI medium containing the cells remained exposed to the substance for up to 24, 48, and 72 h.
(§7) After each period, a solution of [3-(4,5-dimethylthiazol-2yl) -2,5-diphenyltetrazolium] bromide (MTT) was added to the wells at (concentration of 0.5 mg/mL). The plates were incubated for 4 h at 37 °C and then subjected to spectrophotometry (Biotek®) at an absorbance of 590 nm. Three independent trials were performed with peritoneal macrophages and human monocytes.

Series [5] has as its system lesions caused by L. (L.) amazonensis. The series can be described thus: Topical treatment of lesions in hamsters infected with L. (L.) amazonensis. The format is in vivo, Mesocricetus auratus. The following applies: for Infected cells / internalized amastigotes in lesion fragments: after 30 days of treatment; for Lesion volume (in words): gel topically 0.3 mg/day once a day, Glucantime IM 3 mg (Sb5)/kg/day, 30 days, Ag2 effect after the 14th day. As for the experimental part: as §4, §5
Animals were separated into six groups. Five groups were infected with 100 µL of a solution containing 10[6] promastigote/mL of Leishmania spp. The first experiment involved 36 animals infected with L. (L.) amazonensis, and the second experiment involved 36 animals infected with L. (V.) guyanensis. Animals were divided into the following groups:
• Group I: Uninfected control • Group II: Untreated, infected control • Group III: Infected and treated with Glucantime® (IM) • Group IV: Infected and treated with Ag1 (lesions treated topically once a day) • Group V: Infected and treated with Ag2 (lesions treated topically once a day) • Group VI: Infected and treated with gel without the addition of complexes (lesions treated topically once a day)
To evaluate the course of infection, the total volume of the lesion (length, width, and height) was measured using a caliper (Zaas® Precision). Animals were weighed once per week. After 30 days of treatment, the animals were euthanized using ketamine hydrochloride (Dopalen®) combined with xylazine hydrochloride (Anasedan®) following the Animal Use Ethics Commission (CEUA) protocols (060/2018).
For parasitological studies, a sample of the tissue from the lesion region lesion in each animal was sectioned, and the fragment was printed on a glass slide and stained using the Panoptic kit (Laborclin®). The slides were evaluated using optical microscopy, 30 fields were counted, and the analysis and quantification of infected and uninfected cells and the quantity of internalized amastigote forms were performed. Fragments of each animal’s skin lesions and liver were also sectioned and cultured in an NNN medium for 7 days. After this period, an aliquot containing the fragments was evaluated using optical microscopy for parasitological analysis.
For the in vivo results, we used two-way analysis of variance to evaluate the statistical significance between the groups, followed by the Tukey test to compare the means of the groups at a 95% confidence interval.

In series [6] the test system is amastigote forms of L. (L.) amazonensis internalized in murine peritoneal macrophages. The series is described as follows: Assay with amastigote forms of L. (L.) amazonensis in peritoneal macrophages. The format is cell-based, Leishmania (Leishmania) amazonensis. As for the experimental part:
as §1, §2
(§8) The SI is the relationship between the cytotoxic activity of the tested compound and its anti-leishmanial activity. In our study, the SI was calculated from the ratio of cytotoxicity for macrophages/monocytes with a cytotoxic concentration at 50% (CC50) and action against amastigote forms in each of these cell types with an inhibitory concentration at 50% (IC50), using the equation: SI = CC50IC50-AMA^3
as §3

The test system of series [7] is promastigote forms of Leishmania (Leishmania) amazonensis (IM5584). The series can be described thus: Assay with promastigote forms, L. (L.) amazonensis. The format is cell-based. As for the experimental part: (§9) We used the species L. (Leishmania) amazonensis [L. (L.) amazonensis] (MHOM/BR/2009/IM5584) and L. (Viannia) guyanensis [L. (V.) guyanensis] (MHOM/BR/1975/M4147), which had been cultivated in the biphasic medium Novy - MacNeal - Nicolle (NNN) and amplified in the RPMI liquid medium (Himedia®). The culture was centrifuged for 15 min at 4,400 g. Parasites were adjusted to a concentration of 10[4] parasites/mL.
(§10) The parasites were used at a concentration of 10[4] parasites/mL. The assay was performed in 96-well plates (KASVI®), and then the same procedure and concentrations of the substances were used in the cytotoxicity assay, with negative control and culture medium containing parasites. The activity of the complexes was evaluated at 24, 48, and 72 h intervals using a Neubauer chamber. In addition, cellular viability was evaluated using the assay. Three independent tests were conducted.
as §3

Series [8] relates to promastigote forms of Leishmania (Viannia) guyanensis (M4147). The series is described as follows: Assay with promastigote forms, L. (V.) guyanensis. The format is cell-based. As for the experimental part:
as §9, §10, §3

The subject of series [9] is murine peritoneal macrophages. The series can be described thus: Cytotoxicity (MTT) in murine peritoneal macrophages. The format is cell-based, Balb/c (Mus musculus) mice. As for the experimental part:
Peritoneal macrophages were extracted from Balb/c (Mus musculus) mice, from colonies of the Central Vivarium at the INPA, with the approval of the Ethics Committee on the Use of Animals (CEUA - INPA 023/2020; Appendix A). The animals were anesthetized with ketamine hydrochloride (Dopalen®), and a ventral incision was made. The RPMI medium was introduced; and the abdominal massage was performed for macrophage activation, followed by aspiration, and centrifuged at 1,500 g for 10 min. Cell concentration was adjusted to 10[4] macrophages/mL[6].
as §6, §7

For series [10], the system named is amastigote forms of L. (V.) guyanensis in murine peritoneal macrophages. The series is described as follows: Assay with amastigote forms of L. (V.) guyanensis in peritoneal macrophages. The format is cell-based, Leishmania (Viannia) guyanensis. The procedure:
as §1, §2, §8, §3

In series [11] the test system is mammalian TrxR. More on the design: method as in PMID 33238608. The following applies: purified enzyme and cell extracts; cited from earlier work.
Series [12] concerns large panel of cancer cell lines. More on the design: method as in PMID 33238608. The following applies: cited from earlier work.

For `C1N2CN3CN1CP(C2)C3.C1N2CN3CN1CP(C2)C3.C1N2CN3CN1CP(C2)C3.C1N2CN3CN1CP(C2)C3.F[B-](F)(F)F.[Ag+]` [Ag1, [Ag (PTA)4]BF4], the IC50 in series [1] (24 h) was 109.2 ± 0.63 µM; in series [1] (48 h), 186.6 ± 0.57 µM; in series [1] (72 h), 270.3 ± 0.25 µM; in [3] (24 h), 23.3 ± 1.04 µM; in series [3] (48 h), 69.04 ± 0.34 µM; in series [3] (72 h) it was 150.7 ± 0.91 µM. Besides, the IC50 in series [6] (24 h) is 6.09 ± 0.47 µM; in series [6] (48 h), 14.9 ± 0.41 µM; in series [6] (72 h), 23.8 ± 1.51 µM; in [7] (L. (L.) amazonensis (IM5584), 24 h, read-out: IC50 values, promastigote forms) it was under 10 µM; in [7] (L. (L.) amazonensis (IM5584), 48 h, read-out: IC50 values, promastigote forms), 69.2 ± 3.03 µM; in [7] (L. (L.) amazonensis (IM5584), 72 h, read-out: IC50 values, promastigote forms), 104 ± 1.47 µM. Moreover, the IC50 in [7] (L. (L.) amazonensis, read-out: Activity class according to IC50, promastigotes) was under 10 µM; in series [8] (24 h), 75.14 ± 0.53 µM; in series [8] (48 h) it was 130 ± 2.94 µM; in series [8] (72 h) it was 228.9 ± 1.26 µM; in [10] (24 h), 90.51 ± 0.7 µM; in series [10] (48 h) it was 105.1 ± 0.42 µM. In [10] (72 h), this compound showed an IC50 of 116 ± 1.58 µM. Further, the “Number of amastigotes internalized in lesion” value in [2] (compared to the treated groups) was “highest number”. For the same compound, the “Number of infected cells in lesion fragments” value in [2] (statistical difference compared to Glucantime) is recorded as “largest number of infected cells”. The “Cytotoxicity (in words)” value in series [4] and in series [9] was “toxic” in each case. The “Infected cells / internalized amastigotes in lesion fragments” value in [5] is “greater number of internalized amastigotes”. For the same compound, the “Lesion volume (in words)” value in series [5] is listed as “evolution of lesions”.

For the compound `[Ag+].c1ccc(P(c2ccccc2)c2ccccc2)cc1.c1cnn([BH-](n2cccn2)n2cccn2)c1` [Ag2, [Ag(HBPz3)(PPh3)]], the “TrxR inhibition (in words)” value in series [11] is “very strong inhibitor”. Moreover, in series [12], the “Cytotoxic activity toward cancer cell lines (in words)” value is recorded as “remarkable cytotoxic activity”. For the same compound, the “Cytotoxicity (in words)” value in series [4] (human monocytes) and in series [9] (murine peritoneal macrophages) was “did not show cytotoxic activity” each time. For the same compound, the “Infected cells / internalized amastigotes in lesion fragments” value in series [5] is “statistically significant difference compared to the group without treatment”. In addition, the “Mean difference in lesion volume versus Glucantime” value in series [5] (after the 14th day of treatment, no statistical difference) was 4.38. In addition, the “Lesion volume (in words)” value in [5] is “reduction in lesion volume”.
